The text below walks through data of patent US6639023B1, “Fluorophenyl resin compounds” (Aventis Pharmaceuticals Inc., priority 1998, dated 2003).

This assay addresses Factor Xa (Homo sapiens, UniProt P00742). The assay can be described thus: IC50 against Factor Xa. It counts as biochemical.

Some results are limits rather than exact numbers.

Factor Xa, sequence (P00742 235-488 limits assumed): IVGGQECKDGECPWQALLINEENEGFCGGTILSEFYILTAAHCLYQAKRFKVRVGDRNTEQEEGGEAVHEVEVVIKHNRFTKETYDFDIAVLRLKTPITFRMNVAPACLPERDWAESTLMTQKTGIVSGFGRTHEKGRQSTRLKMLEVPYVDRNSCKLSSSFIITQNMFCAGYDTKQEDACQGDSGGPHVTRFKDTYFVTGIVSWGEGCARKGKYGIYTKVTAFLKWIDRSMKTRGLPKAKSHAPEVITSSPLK
Factor Xa, sequence (P00742 41-179 partner limits assumed): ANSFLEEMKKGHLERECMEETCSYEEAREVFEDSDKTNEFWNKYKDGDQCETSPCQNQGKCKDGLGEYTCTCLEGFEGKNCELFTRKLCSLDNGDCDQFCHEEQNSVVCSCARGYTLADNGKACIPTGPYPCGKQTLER

One may read the IC50 as the concentration that inhibits the measured activity by half. In the case of `O=C1[C@@H](NS(=O)(=O)c2cc3ccc(Cl)cc3s2)CCN1Cc1cc2ncccc2[nH]1` [Example 24], the half-maximal inhibitory concentration (IC50) was below 500 nM.
